Measured values as given in publication PMC5118709, “Identification of Polo-like kinase 1 interaction inhibitors using a novel cell-based assay” (Scientific Reports, 2016).
Like-named read-outs stand apart in the source and are kept apart here.

Assays:
GST-PBD367-603 of Plk1 = GST-PBD367-603 of Plk1 (Homo sapiens, UniProt P53350); assay: fluorescence polarization assay PBD-phosphopeptide; details: for activity in the FP assay: SAR
Method: In this assay, an optimal phosphopeptide for PBD binding is coupled with a FITC fluorophore and its binding to purified recombinant PBD of Plk1 is monitored by the change in polarization of incident light.
The FP buffer was composed of 10 mM Tris pH 8.0, 50 mM NaCl, 1 mM EDTA, 20% glycerol and 0.1% NP-40. The peptide (final concentration 10 nM) was always added to the wells of non-binding, black, 384-well plates, 1 hour after the addition of the protein with the buffer (+/− treatment, 10% DMSO). […] EC65s were used to perform the competitive assays with the non-labeled peptides and with the inhibitors. FP Inhibition was calculated with the formula: 100 − [((mPsample − mPfree peptide)\(mPDMSO − mPfree peptide)) × 100]. […] (Map peptide), and corresponding non-labeled peptides are identical but without FITC in N-terminal. […] Inhibition curves were fitted with GraphPad (Prism software).

HeLa cells = assay: mitotic defect phenotypes by immunofluorescence; type: cell-based; details: 10 nM, 7 h
Method: HeLa cells were treated with these compounds along with the known PBD inhibitors PPG, TQ, Poloxin and the KD inhibitor BI2536 as controls, and then stained against α-Tubulin, pericentrin (a centrosome marker) and DNA (Fig. 2D). In all cases, there was a marked increase in the frequency of disorganized spindles compared with DMSO-treated control cells. This is expected as Plk1 plays multiple roles in spindle assembly and maintenance. […] Cpd 69, an analog of compound 122, induced a similar phenotype at lower concentrations (data not shown). This phenotype was not seen after treatment with BI2536.
For the mitotic defect phenotypes, 25 200 HeLa cells were plated on poly-L-lysine coated round cover slips in 24-well plates. The day after, cells were treated for 7 hours, and then washed with PHEM buffer at 37 °C before fixation in PHEM buffer containing 4% formaldehyde for 20 minutes at 37 °C. Cells were washed three times with TBS-tween 0.1% and plate was kept overnight at 4 °C. Next steps were followed as previously described except that coverslips were incubated in a dark wet chamber with antibodies. Anti-pericentrin (diluted 1:1000; Abcam), anti-α-tubulin DM1A (diluted 1:500; Sigma-Aldrich), Alexa Fluor 488 anti-rabbit and Texas-Red anti-mouse (diluted 1:200; Invitrogen) were used. Coverslips were mounted on slide using Vectashield media containing DAPI (Vector Laboratories).
Images shown in Fig. 2D were acquired on an AxioImager microscope (Carl Zeiss) with a 100x oil objective (NA 1.4 DICIII) and an AxioCam HRM camera (Carl Zeiss) using AxioVision software (Carl Zeiss).

Chain of GST-PBD367-603 of Plk1 (P53350 367-603): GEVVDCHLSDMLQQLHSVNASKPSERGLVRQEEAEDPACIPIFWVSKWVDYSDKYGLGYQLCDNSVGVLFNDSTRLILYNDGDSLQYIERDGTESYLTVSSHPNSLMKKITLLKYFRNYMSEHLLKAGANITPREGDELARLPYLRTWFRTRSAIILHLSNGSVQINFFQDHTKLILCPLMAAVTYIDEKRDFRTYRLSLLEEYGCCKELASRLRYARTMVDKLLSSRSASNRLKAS

| Compound | FP - IC50 (μM) (GST-PBD367-603 of Plk1; Table S3) | IC50 (GST-PBD367-603 of Plk1; read-out: FP - IC50, Table S3) [µM] | further results |
| --- | --- | --- | --- |
| Cc1cc(C(F)(F)F)cc(SCCOC(=O)c2cccc(Br)c2)n1 [Cpd 153] | No inhibition | – | – |
| Cc1ccc(S(=O)(=O)CCC(=O)OCc2ccc(Cl)c(Cl)c2)cc1 [Cpd 138] | No inhibition | – | – |
| Cc1cc(C(F)(F)F)cc(SCCOC(=O)c2cc(Cl)cc(Cl)c2)n1 [Cpd 155] | No inhibition | – | – |
| O=C(OCCS(=O)(=O)c1ccc(Cl)cn1)c1cccc(Cl)c1 [Cpd 131] | – | 70.5 | – |
| O=C(CS(=O)(=O)c1cc(C(F)(F)F)cc(C(F)(F)F)c1)Nc1ccccc1F [Cpd 143] | No inhibition | – | – |
| Cc1cc(C(F)(F)F)cc(SCCOC(=O)c2cccc(OC(F)(F)F)c2)n1 [Cpd 149] | No inhibition | – | – |
| O=C(CS(=O)(=O)c1ccc(C(F)(F)F)cn1)NNC(=O)c1ccccc1 [Cpd 144] | No inhibition | – | – |
| O=C(OCCS(=O)(=O)c1ncccc1C(F)(F)F)c1cccc(Cl)c1 [Cpd 128] | – | 8.4 | – |
| Cc1cc(C(F)(F)F)cc(SCCOC(=O)C2CCCCC2)n1 [Cpd 168] | No inhibition | – | – |
| CC[C@@H]1C(=O)N(C)c2cnc(Nc3ccc(C(=O)NC4CCN(C)CC4)cc3OC)nc2N1C1CCCC1 [BI2536] | – | – | 2 > pericentrin foci (percentage of cells) (HeLa cells): 3 ± 2%; Disorganized spindles (percentage of cells) (HeLa cells): 55 ± 8% |
| Cc1c(Cl)cccc1NC(=O)CCS(=O)(=O)c1ccccc1 [Cpd 140] | No inhibition | – | – |
| Cc1cc(C(F)(F)F)cc(S(=O)(=O)CCOC(=O)c2cc(Cl)cc(Cl)c2)n1 [Cpd 156] | – | 48.1 | – |
| Cc1cc(C(F)(F)F)cc(SCCO)n1 [Cpd 146, 2-((6-methyl-4-(trifluoromethyl)pyridin-2-yl)thio) ethanol] | No inhibition | – | – |
| CC(C)(C)c1ccc(C(=O)OCCS(=O)(=O)c2ccc(C(F)(F)F)cn2)cc1 [Cpd 132] | – | 26.1 | – |
| CCS(=O)(=O)c1cc(C(F)(F)F)cc(C)n1 [Cpd 169, 2-(ethylsulfonyl)-6-methyl-4-(trifluoromethyl)pyridine] | No inhibition | – | activity in the FP assay (GST-PBD367-603 of Plk1): completely abrogated activity |
| O=C(OCCS(=O)(=O)c1ccc(C(F)(F)F)cn1)c1ccc(Cl)c(Cl)c1 [Cpd 130] | – | 7.8 | – |
| Cc1cc(C(F)(F)F)cc(SCCOCc2cccc(Cl)c2)n1 [Cpd 157] | No inhibition | – | – |
| Cc1cc(C(F)(F)F)cc([S+]([O-])CCOC(=O)c2cccc(Cl)c2)n1 (centres unmarked) [Cpd 148, 2-((6-methyl-4-(trifluoromethyl)pyridin-2-yl)sulfinyl)ethyl 3-chlorobenzoate] | No inhibition | – | activity in the FP assay (GST-PBD367-603 of Plk1): activity was abolished |
| Cc1cc(C(F)(F)F)cc(S(=O)(=O)CCOC(=O)c2cccc(Br)c2)n1 [Cpd 154] | – | 36.8 | – |
| Cc1ccc(S(=O)(=O)CCC(=O)Nc2cccc(Cl)c2)cc1 [Cpd 137] | No inhibition | – | – |

| Compound | FP - IC50 (μM) (GST-PBD367-603 of Plk1; Table S3) | IC50 (GST-PBD367-603 of Plk1; read-out: FP - IC50, Table S3) [µM] | further results |
| --- | --- | --- | --- |
| Cc1cc(C(F)(F)F)cc(S(=O)(=O)CCO)n1 [Cpd 158, 2-((6-methyl-4-(trifluoromethyl)pyridin-2-yl)sulfonyl)ethanol] | No inhibition | – | activity in the FP assay (GST-PBD367-603 of Plk1): completely abrogated activity |
| O=C(OCCS(=O)(=O)c1ncccc1Cl)c1cccc(Cl)c1 [Cpd 126] | – | 4.3 | – |
| O=C(OCCS(=O)(=O)c1ccc([N+](=O)[O-])cn1)c1cccc(Cl)c1 [Cpd 133] | – | 5.4 | – |
| O=C(OCCS(=O)(=O)c1ccc(C(F)(F)F)cn1)c1ccccc1 [Cpd 129] | – | 8.5 | – |
| CC(CC(=O)Nc1ccc(Cl)cc1)S(=O)(=O)c1ccc(Cl)cc1 (centres unmarked) [Cpd 141] | No inhibition | – | – |
| Cc1ccc(C(=O)OCCS(=O)(=O)c2ccc(C(F)(F)F)cn2)cc1 [Cpd 123] | – | 7.2 | – |
| O=C(OCCS(=O)(=O)c1ccccn1)c1ccccc1 [Cpd 124] | – | – | IC50 (GST-PBD367-603 of Plk1; FP - IC50 (μM), Table S3): 68.6 ± 18.5 µM; IC50 (GST-PBD367-603 of Plk1; IC50 in FP, GST-PBD367-603 38 nM, 1 h pre-incubation, FITC-phosphopeptide 10 nM, Fig. 4C): 56 µM |
| O=C(OCCS(=O)(=O)c1ccc(C(F)(F)F)cn1)c1cccc(Cl)c1 [Cpd 125] | – | 11.9 ± 7.2 | – |
| O=C(NCCS(=O)(=O)c1ccc(C(F)(F)F)cn1)c1ccc(Cl)cc1 [Cpd 142] | No inhibition | – | activity in the FP assay (GST-PBD367-603 of Plk1): activity was abolished |
| Cc1cc(C(F)(F)F)cc(SCCOC(=O)c2cccc(Cl)c2)n1 [Cpd 147, 2-((6-methyl-4-(trifluoromethyl)pyridin-2-yl)thio)ethyl 3-chlorobenzoate] | No inhibition | – | activity in the FP assay (GST-PBD367-603 of Plk1): activity was abolished |
| Cc1cc(C(F)(F)F)cc(S(=O)(=O)CCOC(=O)c2cccc(OC(F)(F)F)c2)n1 [Cpd 151] | – | 41.7 | – |
| Cc1cc(C(F)(F)F)cc(S(=O)(=O)CCOS(C)(=O)=O)n1 [Cpd 164, 2-((6-methyl-4-(trifluoromethyl)pyridin-2-yl)sulfonyl) ethyl methanesulfonate] | – | 6 | – |
| O=[N+]([O-])c1cccc(S(=O)(=O)NCCOc2cccc(Cl)c2Cl)c1 [Cpd 139] | No inhibition | – | – |
| Cc1cc(C(F)(F)F)cc(S(=O)(=O)CCOCc2cccc(Cl)c2)n1 [Cpd 159] | No inhibition | – | – |
| Cc1cccc(C(=O)OCCSc2cc(C(F)(F)F)cc(C)n2)c1 [Cpd 150] | No inhibition | – | – |
| Cc1ccc(NC(=O)CCS(=O)(=O)c2ccccc2)c(Br)c1 [Cpd 145] | No inhibition | – | – |
| O=S(=O)(CC(O)COc1ccccc1)c1ccccn1 (centres unmarked) [Cpd 136] | No inhibition | – | – |
| Cc1cccc(C(=O)OCCS(=O)(=O)c2cc(C(F)(F)F)cc(C)n2)c1 [Cpd 152] | – | 54.4 | – |
| O=C(OCCS(=O)(=O)c1ccccn1)c1cccc(Cl)c1 [Cpd 127] | – | 187 | – |
| Cc1cc(C(F)(F)F)cc(S(=O)(=O)CCOC(=O)C2CCCCC2)n1 [Cpd 160] | – | 75 | – |
